Assay results as given in patent publication EP2608671B1, “COMPOUNDS FOR TREATMENT OF CANCER” (Gtx, Inc., priority 2010, dated 2012).
Like-named read-outs stand apart in the source and are kept apart here.

Tests used:
[1] = system: B16-F1; experiment: SRB cell growth inhibition (cytotoxicity) assay; format: cell-based, mouse
Source text: (§1) The only compounds which belong to the invention are the ones falling under the scope of formula (XI).

[2] = system: DU 145; experiment: cells; settings: Homo sapiens
[3] = system: PC-3; experiment: cells
Source text: as §1
Cells were stained with SRB solution.
Cells. […] Cells between the third and fifth passages were used for experiments.
Cell growth inhibition studies. […] Cells were stained with sulphorhodamine B (SRB) solution.

[4] = system: LNCaP; experiment: cells; settings: Homo sapiens
[5] = system: A375; experiment: SRB cell growth inhibition (cytotoxicity) assay; format: cell-based, human
[6] = system: PPC-1; experiment: cells; settings: Homo sapiens
[7] = Mus musculus, B16-F1; read-out: IC50 ± SEM (nM), B16-F1
[8] = DU-145, 96 h, read-out: IC50 ± SEM (nM), DU 145
[9] = Homo sapiens, PC-3, 96 h, read-out: IC50 ± SEM (nM), PC-3
[10] = 96 h, read-out: IC50 ± SEM (nM), LNCaP
[11] = Homo sapiens, A-375, 96 h; read-out: IC50 ± SEM (nM), A375
[12] = PPC-1, 96 h, read-out: IC50 ± SEM (nM), PPC-1
[13] = DU-145, read-out: IC50 ±SEM (nM), DU 145
[14] = Homo sapiens, PC-3, read-out: IC50 ±SEM (nM), PC-3
[15] = read-out: IC50 ±SEM (nM), LNCaP
[16] = PPC-1, read-out: IC50 ±SEM (nM), PPC-1
[17] = Homo sapiens, PC-3, 96 h, read-out: IC50 (nM), PC-3
[18] = DU-145, 96 h, read-out: IC50 ± SEM (nM) Du 145
[19] = DU-145, read-out: IC50 (nM), DU 145
[20] = Homo sapiens, PC-3, read-out: IC50 (nM), PC-3
[21] = PPC-1, read-out: IC50 (nM), PPC-1

Row | SMILES | IC50 [2, 8] [nM] | IC50 [3, 9] [nM] | IC50 [4, 10] [nM] | IC50 [6, 12] [nM] | also measured
1 | COc1cc(C(=O)c2cccc(-c3ccccc3)c2)cc(OC)c1OC [1a, Biphenyl-3-yl(3,4,5-trimethoxyphenyl)methanone] | 178 | 81 | 234 | 85 | IC50 [1, 7]: 500 ± 200 nM; IC50 [5, 11]: 87 ± 15 nM
2 | COc1cc(C(O)c2csc(-c3ccccc3)n2)cc(OC)c1OC (stereo not shown) [2b, (2-Phenylthiazol-4-yl)(3,4,5-trimethoxyphenyl)methanol] | > 10000 | > 10000 | > 10000 | > 10000 | IC50 [1, 7]: > 30000 nM; IC50 [5, 11]: > 30000 nM
3 | COc1cc(/C(=N/N)c2csc(-c3ccccc3)n2)cc(OC)c1OC [2d-cis, (Z)-4-(hydrazono(3,4,5-trimethoxyphenyl)methyl)-2-phenylthiazole] | 1210 | 1120 | 1800 | 872 | IC50 [1, 7]: 2000 ± 800 nM; IC50 [5, 11]: 900 ± 300 nM
4 | COc1cc(/C(=N\N)c2csc(-c3ccccc3)n2)cc(OC)c1OC [2d-trans, (E)-4-(hydrazono(3,4,5-trimethoxyphenyl)methyl)-2-phenylthiazole] | 1210 | 1040 | 1300 | 966 | IC50 [1, 7]: 1800 ± 700 nM; IC50 [5, 11]: 600 ± 200 nM
5 | COc1cc(NC(=O)c2csc(-c3ccccc3)n2)cc(OC)c1OC [2g, 2-Phenyl-N-(3,4,5-trimethoxyphenyl)thiazole-4-carboxamide] | > 10000 | > 10000 | – | > 10000 | IC50 [1, 7]: > 30000 nM; IC50 [5, 11]: > 30000 nM
6 | COc1cc(C(=O)Nc2csc(-c3ccccc3)n2)cc(OC)c1OC [2h, 3,4,5-Trimethoxy-N-(2-phenylthiazol-4-yl)benzamide] | > 10000 | > 10000 | > 10000 | > 10000 | IC50 [1, 7]: > 30000 nM; IC50 [5, 11]: > 30000 nM
7 | COc1cc(C(=O)c2csc(-c3ccc(CC#N)cc3)n2)cc(OC)c1OC [2n, 2-(4-(4-(3,4,5-Trimethoxybenzoyl)thiazol-2-yl)phenyl)acetonitrile] | – | – | – | – | IC50 ([1]; Mus musculus, B16-F1; Table 6; read-out: IC50 ±SEM (nM), B16-F1): 290 nM; IC50 [2, 13]: 143 nM; IC50 [3, 14]: 131 nM; IC50 [4, 15]: 101 nM; IC50 ([5]; Homo sapiens, A-375; Table 6; read-out: IC50 ±SEM (nM), A375): 210 nM; IC50 [6, 16]: 99 nM
8 | COc1cc(/C=C\c2csc(-c3ccccc3)n2)cc(OC)c1OC [3a, (Z)-2-Phenyl-4-(3,4,5-trimethoxystyryl)thiazole] | > 10000 | > 10000 | > 10000 | > 10000 | IC50 ([1]; Mus musculus, B16-F1, read-out: IC50 ± SEM (nM), B16-F1): 11000 ± 2800 nM; IC50 ([5]; Homo sapiens, A-375, 96 h, read-out: IC50 ± SEM (nM), A375): 46500 ± 23300 nM
9 | COc1cc(C(=O)c2csc(Nc3ccc(Cl)cc3)n2)cc(OC)c1OC [5d, (2-((4-Chlorophenyl)amino)thiazol-4-yl)(3,4,5-trimethoxyphenyl)methanone] | 73 ± 1 | 33 ± 1 | 45 ± 1 | 36 ± 1 | IC50 [5, 11]: 25 ± 7 nM
10 | Clc1nccc2ccc(-c3ccc4[nH]ccc4c3)cc12 [6d, 1-Chloro-7-(1H-indol-5-yl)-isoquinoline] | – | – | – | – | IC50 [2, 13]: 1640 nM; IC50 [3, 14]: 908 nM; IC50 [4, 15]: 703 nM; IC50 [6, 16]: 929 nM
11 | O=S(=O)(c1ccccc1)n1ccnc1-c1ccccc1 [10a, 2-phenyl-1-(phenylsulfonyl)-1H-imidazole] | – | – | – | – | IC50 [3, 17]: > 10000 nM
12 | O=S(=O)(c1ccccc1)n1ccnc1-c1ccc(OCc2ccccc2)cc1 [10j, 2-(4-(benzyloxy)phenyl)-1-(phenylsulfonyl)-1H-imidazole] | – | – | – | – | IC50 [3, 17]: > 10000 nM
13 | O=[N+]([O-])c1ccc(-c2nccn2S(=O)(=O)c2ccccc2)cc1 [10x, 2-(4-nitrophenyl)-1-(phenylsulfonyl)-1H-imidazole] | – | – | – | – | IC50 [3, 17]: > 10000 nM
14 | COc1cc(C(=O)n2ccnc2-c2ccccc2)cc(OC)c1OC [12aaa, (2-phenyl-1H-imidazol-1-yl)(3,4,5-trimethoxyphenyl)methanone] | – | – | – | – | IC50 [3, 17]: > 10000 nM
15 | COc1ccc(C(=O)n2ccnc2-c2ccccc2)cc1 [12aba] | – | – | – | – | IC50 ([3]; read-out: IC50 (nM), PC-3, SRB, 96 h, Table 11): > 10000 nM
16 | COc1ccc(C(=O)c2c[nH]c(-c3ccccc3)n2)cc1OC [12ae, (3,4-dimethoxyphenyl)(2-phenyl-1H-imidazol-4-yl)methanone] | – | – | – | – | IC50 [3, 17]: > 10000 nM

Row | SMILES | IC50 [2, 8] [nM] | IC50 [3, 9] [nM] | IC50 [4, 10] [nM] | IC50 [6, 12] [nM] | also measured
17 | O=C(c1cccc(F)c1)c1c[nH]c(-c2ccccc2)n1 [12ag, (3-fluorophenyl)(2-phenyl-1H-imidazol-4-yl)methanone] | – | – | – | – | IC50 [3, 17]: > 10000 nM
18 | COc1cc(C(=O)c2c[nH]c(-c3ccc(F)cc3)n2)cc(OC)c1OC [12ba, (2-(4-fluorophenyl)-1H-imidazol-4-yl)(3,4,5-trimethoxyphenyl)methanone] | – | 169 ± 12 | 98 ± 2 | 81 ± 1 | IC50 [2, 18]: 132 ± 24 nM
19 | COc1ccc(-c2nc(C(=O)c3cc(OC)c(OC)c(OC)c3)c[nH]2)cc1 [12ca, (2-(4-methoxyphenyl)-1H-imidazol-4-yl)(3,4,5-trimethoxyphenyl)methanone] | – | 45 ± 1 | – | 34 ± 0.3 | IC50 [2, 18]: 48 ± 0.5 nM
20 | COc1cc(C(=O)c2cn(Cc3ccccc3)c(-c3ccc(C)cc3)n2)cc(OC)c1OC [12daa, (1-Benzyl-2-(p-tolyl)-1H-imidazol-4-yl)(3,4,5-trimethoxyphenyl)methanone] | – | 466 | 683 | 778 | IC50 [2, 18]: 1500 nM
21 | COc1cc(C(=O)c2c[nH]c(-c3ccc(N(C)C)cc3)n2)cc(OC)c1OC [12ga, (2-(4-(dimethylamino)phenyl)-1H-imidazol-4-yl)(3,4,5-trimethoxyphenyl)methanone] | – | 92 ± 4 | 58 ± 2 | 67 ± 0.7 | IC50 [2, 18]: 95 ± 1 nM
22 | CN(C)c1ccc(-c2nc(C(=O)c3ccc(F)cc3)c[nH]2)cc1 [12gb, (2-(4-(dimethylamino)phenyl)-1H-imidazol-4-yl)(4-fluorophenyl)methanone] | – | 81 ± 3 | 57 ± 6 | 45 ± 0.3 | –
23 | COc1ccc(-c2nc(C(=O)c3ccc(F)cc3)c[nH]2)cc1OC [12hb, (2-(3,4-dimethoxyphenyl)-1H-imidazol-4-yl)(4-fluorophenyl)methanone] | – | 10000 | 2530 | 2170 ± 48 | IC50 [2, 18]: 10000 nM; IC50 ([5]; Homo sapiens, A-375; A375 melanoma cells, 48 h, SRB; read-out: IC50 ± SEM (nM) A375): 10000 nM
24 | COc1cc(C(=O)c2c[nH]c(-c3ccc(OCc4ccccc4)cc3)n2)cc(OC)c1OC [12ja, (2-(4-(benzyloxy)phenyl)-1H-imidazol-4-yl)(3,4,5-trimethoxyphenyl)methanone] | – | 10000 | 2790 | 2840 | IC50 [2, 18]: 10000 nM
25 | O=C(c1ccc(F)cc1)c1c[nH]c(-c2ccc(OCc3ccccc3)cc2)n1 [12jb, (2-(4-(benzyloxy)phenyl)-1H-imidazol-4-yl)(4-fluorophenyl)methanone] | – | 79 ± 0.4 | 44 ± 7 | 43 ± 0.2 | IC50 [2, 18]: 60 ± 3 nM
26 | COc1cc(C(=O)c2coc(-c3ccccc3)n2)cc(OC)c1OC [36a, (2-Phenyl-oxazol-4-yl)-(3,4,5-trimethoxy-phenyl)-methanone] | 292 | 294 | 310 | 324 | IC50 [1, 7]: 600 ± 200 nM; IC50 [5, 11]: 300 ± 100 nM
27 | Fc1ccc(-c2ccc3ccnc(-c4ccc(F)cc4)c3c2)cc1 [compound 40, 1,7-Bis-(4-fluoro-phenyl)-isoquinoline] | – | – | – | – | IC50 [2, 19]: 18400 nM; IC50 [3, 20]: 19600 nM; IC50 ([4]; read-out: IC50 (nM), LNCaP): 13400 nM; IC50 [6, 21]: 6200 nM
28 | O=S(=O)(c1ccc(F)cc1)N1CCCc2ccc(-c3ccc4[nH]ccc4c3)cc21 [compound 41, 1-(4-Fluoro-benzenesulfonyl)-7-(1H-indol-5-yl)-1,2,3,4-tetrahydroquinoline] | – | – | – | – | IC50 [2, 19]: 17000 nM; IC50 [3, 20]: 18200 nM; IC50 ([4]; read-out: IC50 (nM), LNCaP): 15800 nM; IC50 [6, 21]: > 20000 nM
29 | O=S(=O)(c1ccc(F)cc1)N1CCc2ccc(Br)cc2C1 [compound 42, 7-Bromo-2-(4-fluoro-benzenesulfonyl)-1,2,3,4-tetrahydro-isoquinoline] | – | – | – | – | IC50 [2, 19]: 24900 nM; IC50 [3, 20]: 23800 nM; IC50 ([4]; read-out: IC50 (nM), LNCaP): 43600 nM; IC50 [6, 21]: > 20000 nM
30 | O=S(=O)(c1ccc(F)cc1)N1CCCc2ccc(Br)cc21 [compound 43, 7-Bromo-1-(4-fluoro-benzenesulfonyl)-1,2,3,4-tetrahydroquinoline] | – | – | – | – | IC50 [2, 19]: 17200 nM; IC50 [3, 20]: 14700 nM; IC50 ([4]; read-out: IC50 (nM), LNCaP): 12700 nM; IC50 [6, 21]: > 20000 nM
31 | c1ccc(Nc2nccn2C(c2ccccc2)(c2ccccc2)c2ccccc2)cc1 [d, N-Phenyl-1-trityl-1H-imidazol-2-amine] | > 1000 | > 1000 | > 1000 | > 1000 | –
32 | COc1cc(C(=O)c2cn(C(c3ccccc3)(c3ccccc3)c3ccccc3)c(Nc3ccccc3)n2)cc(OC)c1OC [e, (2-(Phenylamino)-1-trityl-1H-imidazol-4-yl)(3,4,5 trimethoxyphenyl)methanone] | > 1000 | > 1000 | > 1000 | > 1000 | –
